Reference: patent publication US7419984B2, “Pyrimidines and uses thereof” (Cell Therapeutics, Inc., priority 2002, dated 2008)

Biological target: T1, human LPAAT-β (Homo sapiens, UniProt O15120)
T1 construct: the full-length human LPAAT-β cDNA was amplified by PCR; poly-histidine tag (N); made in house; host or cells: Sf9 insect cells (baculovirus, pFastBac HTc); the membrane fraction was used as the enzyme
T1 sequence (O15120 24-278): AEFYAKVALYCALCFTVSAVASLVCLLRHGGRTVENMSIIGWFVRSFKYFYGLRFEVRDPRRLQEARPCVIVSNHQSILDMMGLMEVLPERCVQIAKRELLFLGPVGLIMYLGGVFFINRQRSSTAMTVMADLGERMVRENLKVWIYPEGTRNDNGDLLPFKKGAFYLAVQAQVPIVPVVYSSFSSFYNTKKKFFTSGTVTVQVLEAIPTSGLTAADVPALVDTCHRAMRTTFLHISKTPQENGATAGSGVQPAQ
Assay: LPAAT-β cell-free assay
Assay type: biochemical
Details: Sf9 cell membrane overexpressing recombinant LPAAT-β
Method in brief: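 Membranes from Sf9 cells expressing His/myc-tagged full-length human LPAAT-β were used in HEPES-saline pH 7.5 with 1 mg/ml BSA. Compound was added from a 200 μM DMSO stock, and reaction with 18:1-CoA and sn-1-18:1 lysoPA (1 mM stocks) ran 25 min at RT. Released CoA was detected with DTNB at 405 nm; a radiometric variant used 200 μM [14C]18:1-CoA and 200 μM lysoPA.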

Row | IC50 [nM] | Structure (SMILES)
1 | 4 | COc1ccccc1COc1ccc(Br)cc1-c1cc(Nc2ccc(Cl)cc2)nc(N)n1 [Example 182, 6-[5-Bromo-2-(2-methoxy-benzyloxy)-phenyl]-N*4*-(4-chloro-phenyl)-pyrimidine-2,4-diamine]
2 | 40 | CCOc1ccc(Br)cc1-c1cc(Nc2ccc(Br)cc2)ncn1 [Example 181, [6-(5-Bromo-2-ethoxy-phenyl)-pyrimidin-4-yl]-(4-bromo-phenyl)-amine]
3 | 22 | Nc1nc(Nc2ccc(Cl)cc2)cc(-c2cc(Br)ccc2Cl)n1 [Example 187, 6-(5-Bromo-2-chloro-phenyl)-N*4*-(4-chloro-phenyl)-pyrimidine-2,4-diamine]
4 | 180 | Nc1nc(Nc2ccc(Cl)c(C(F)(F)F)c2)cc(-c2cc(Cl)ccc2Cl)n1 [Example 179, N*4*-(4-Chloro-3-trifluoromethyl-phenyl)-6-(2,5-dichloro-phenyl)-pyrimidin-2,4-diamine]
5 | 450 | Nc1nc(Nc2ccc(Cl)cc2)cc(-c2cc(Br)ccc2O)n1 [Example 72, 2-[2-Amino-6-(4-chloro-phenylamino)-pyrimidin-4-yl]-4-bromo-phenol]
6 | 850 | Cc1ccc(Cl)cc1-c1cc(Nc2ccc(CCCO)cc2)nc(N)n1 [Example 109, 3-{4-[2-Amino-6-(5-Chloro-2-methyl-phenyl)-pyrimidin-4-ylamino]-phenyl}-propan-1-ol]
7 | 22 | CCOc1ccc(Cl)cc1-c1cc(Nc2ccc(C#N)cc2)nc(N)n1 [Example 57, 4-[2-Amino-6-(5-chloro-2-ethoxy-phenyl)-pyrimidin4-ylamino]-benzonitrile]
8 | 38 | Cc1ccc(Cl)cc1-c1cc(Nc2ccc(C#N)cc2)nc(N)n1 [Example 32, 4-[2-Amino-6-(5-chloro-2-methyl-phenyl)-pyrimidin4-ylamino]-benzonitrile]
9 | 83 | CCOc1ccc(Cl)cc1-c1cc(Nc2ccc(COC(=O)CCC(=O)O)cc2)nc(N)n1 [Example 63, Succinic acid mono-{4-[2-amino-6-(5-chloro-2-ethoxy-phenyl)-pyrimidin-4-ylamino]-benzyl}-ester]
10 | 50 | Cc1ccc(Nc2cc(-c3cc(Cl)ccc3Cl)nc(N)n2)cc1 [Example 15, 6-(2,5-Dichloro-phenyl)-N*4*-p-tolyl-pyrimidine-2,4-diamine]
11 | 8000 | COc1ccc(Cl)cc1-c1nc(N)cc(Nc2ccc(Br)cc2)n1 [Example 36, N-(4-Bromo-phenyl)-2-(5-chloro-2-methoxy-phenyl)-pyrimidine4,6-diamine]
12 | 88 | COc1ccc(Cl)cc1-c1cc(Nc2ccc(C(F)(F)F)cc2)nc(N)n1 [Example 4, 6-(5-Chloro-2-methoxy-phenyl)-N*4*-(4-trifluoromethylphenyl)-pyrimidine-2,4-diamine]
13 | 120 | CCOc1ccc(Cl)cc1-c1cc(Nc2ccc(CCCCO)cc2)nc(N)n1 [Example 93, 4-{4-[2-Amino-6-(5-chloro-2-ethoxy-phenyl)-pyrimidin4-ylamino]-phenyl}-butan-1-ol]
14 | 12 | CCOc1ccc(Br)cc1-c1cc(Nc2ccc(C(=O)C(F)(F)F)cc2)nc(N)n1 [Example 131, 1-{4-[2-Amino-6-(5-bromo-2-ethoxy-phenyl)-pyrimidin-4-ylamino]-phenyl}-2,2,2-trifluoro-ethanone]
15 | 26 | Nc1nc(Nc2ccc(Br)cc2)cc(-c2cc(Cl)ccc2Cl)n1 [Example 14, N*4*-(4-Bromo-phenyl)-6-(2,5-dichloro-phenyl)-pyrimidine-2,4-diamine]
16 | 21 | Nc1nc(Nc2ccc(Cl)cc2)cc(-c2cc(Br)ccc2OCc2ccc([N+](=O)[O-])cc2)n1 [Example 178, 6-[5-Bromo-2-(4-nitro-benzyloxy)-phenyl]-N*4*-(4-chloro-phenyl)-pyrimidine-2,4-diamine]
17 | 260 | CCOc1ccc(Br)cc1-c1cc(Nc2ccc(C(C)OC)cc2)nc(N)n1 (centres unmarked) [Example 137, 6-(5-Bromo-2-ethoxy-phenyl)-N*4*-[4-(1-methoxy-ethyl)-phenyl]-pyrimidin-2,4-diamine]
